Assays:
[1] = Generation of bioluminescence from luciferin borates upon treatment with hydrogen peroxide (luciferase light reaction); assay type: biochemical; details: for light signal increase upon addition of hydrogen peroxide (in words): all pH values 6.87 to 9.18
Procedure: In this example, luciferin borates were incubated with hydrogen peroxide, and luciferin generation was measured using a light reaction catalyzed by luciferase. An increase in light output (bioluminescence) as a result of treatment of the luciferin borates with hydrogen peroxide indicates generation of luciferin as a result of the reaction with hydrogen peroxide.
1 M phosphate solutions (either 6.8 g of KH2PO4 (Fisher) or 11.4 g of K2HPO4 (Sigma) were dissolved in Nanopure water to 1 M) were diluted 1:5 with Nanopure water to produce 200 mM phosphate solutions. 200 mM phosphate buffers at pH 6.87, 7.41, 7.73, 8.04, and 9.18 were prepared. 4 mg/ml solutions of PBI 3048, 4013, 4424 and 4425 (FIG. 1) in DMSO (Fluka 41641) were made from solid powder.
Into two 96-well white, solid bottom luminometer plates (Promega Z3291) (labeled “A” and “B”), 50 μl of 200 mM phosphate buffer pH 6.87 was added to wells A1-H2; 50 μl of 200 mM phosphate pH 7.41 was added to wells A3-H4; 50 μl of 200 mM phosphate buffer pH 7.73 was added to wells A5-H6; 50 μl of 200 mM phosphate buffer pH 8.04 was added to wells A7-H8; and 50 μl of 200 mM phosphate buffer pH 9.18 was added to wells A9-H10.
50 μl of 4 mg/ml PBI 4013 in DMSO was diluted to 1.25 ml with Nanopure water, and 25 μl added to wells A1-D10 of plate A. 50 μl of 4 mg/ml PBI 4424 was diluted to 1.25 ml with Nanopure water, and 25 μl added to E1-H10 of plate A. 50 μl of 4 mg/ml PBI 3048 was diluted to 1.25 ml with Nanopure water, and 25 μl added to A1-D10 of plate B. 50 μl of 4 mg/ml PBI 4425 was diluted to 1.25 ml with Nanopure water, and 25 μl added to E1-H10 of plate B. 25 μl of Nanopure water was added to rows A and E of both plates. 17 μl of Nanopure water was added to rows B and F of both plates; and 8 μl of Nanopure water was added to rows C and G of both plates
A hydrogen peroxide solution (30% hydrogen peroxide, Sigma H1009-5 ml) was diluted to 60 μM hydrogen peroxide with Nanopure water, and 25 μl of the 60 μM hydrogen peroxide was added to rows D and H of both plates; 17 μl of […] hydrogen peroxide was added to rows C and G of both plates; and 8 μl of […] hydrogen peroxide was added to rows B and F of both plates. Both plates A and B were then gently mixed for 70 minutes.
A bottle of Reconstitution Buffer with Esterase (Promega V144B) was thawed and used to reconstitute a Luciferin Detection Reagent (Promega V859B) to create a reconstituted Luciferin Detection Reagent (“LDR”). 15 ml of 1 M HEPES buffer, pH 7.5 was mixed with 25 ml of the LDR, and 80 μl added to wells A1-H10 of two new luminometer plates (“R1” and “R2”).
Following incubation, 20 μl of the contents of wells A1-H10 of plate A was transferred to the same wells in plate R1, and 20 μl of A1-H10 of plate B was transferred to the same wells in plate R2. Plate R1 and R2 were then incubated at room temperature for 15 minutes, and bioluminescence was measured with a GloMax® luminometer (Promega Corp).
Bioluminescence from duplicate wells was averaged, and the average relative light units (RLUs) from samples containing peroxide were compared to those from the samples not containing peroxide incubated at the same pH (Table 1).

[2] = Light generation from compounds following incubation with hydrogen peroxide in different pH solutions (D-cysteine conversion, LDR); assay type: biochemical; details: for Signal to Background Ratios: signal with peroxide to background no peroxide
Procedure: In this experiment, various compounds were tested for their ability to detect hydrogen peroxide in different pH solutions. Several compounds are shown to give much better signal strength and signal to background ratios than PBI 3048 (Example 23). 4 mg/ml solutions of compounds PBI 4480, 4481, 4452, 4470, 4472, 3048 (FIGS. 1 and 2) were made by dissolving them in DMSO (Fluka 41641). 30 μl of the compound solutions was diluted to 1.5 ml with Nanopure water, and 50 μl aliquots added as follows into a white, 96-well luminometer plate: PBI 4481, row A1-12; PBI 4480, row B1-12; PBI 4452, row C1-12; PBI 3048, row D1-12; PBI 4472, row E1-12 and PBI 4470, row F1-12.
25 μl of 200 mM TRIS buffer, pH 7.6 was added to wells A1-F4, 25 μl of 200 mM TRIS buffer, pH 8.8 was added to wells A5-F8, and 25 μl of 200 mM Tris buffer, pH 10.4 was added […].
30% hydrogen peroxide (Sigma H 1009-5 ml) was diluted to 40 μM in Nanopure water, and 25 μl added to columns 3, 4, 7, 8, 11 and 12 of the plate. 25 μl water was added to columns 1, 2, 5, 6, 9, and 10 of the plate, and the plate incubated at room temperature for 60 minutes.
A conversion solution was made by mixing 100 μl of 100 mM D-cysteine, 1 ml Tris Buffer pH 8.8 and 8.9 ml nanopure water. After mixing, 80 μl of the solution was added to wells A1-F12 of a new luminometer plate.
After incubation, 20 μl of sample from wells A1-F12 of the first plate was transferred to the same well in the new luminometer plate. The new plate was incubated at room temperature for 5 minutes, 100 μl of LDR (Example 23) was added to wells A1-F12, and bioluminescence detected on a Glo Max® luminometer (Promega).
The RLUs for the duplicate wells were averaged. The averages for the wells containing hydrogen peroxide were compared to the wells without hydrogen peroxide at the same pH (Table 2). BZT is used to designate benzothiazole derivatives of the compounds.
The Signal to Background (S/B) ratio is used to compare assay reagents with very difference signal strengths. An assay with a higher S/B ratio is often considered a better assay than one with a smaller S/B ratio (with all other factors being relatively equal).

[3] = H2O2 0 μM, phosphate buffer pH 6.87, 70 minutes
[4] = H2O2 0 μM, phosphate buffer pH 7.41, 70 minutes
[5] = H2O2 0 μM, phosphate buffer pH 7.73, 70 minutes
[6] = H2O2 0 μM, phosphate buffer pH 8.04, 70 minutes
[7] = H2O2 0 μM, phosphate buffer pH 9.18, 70 minutes
[8] = H2O2 5 μM, phosphate buffer pH 6.87, 70 minutes
[9] = H2O2 5 μM, phosphate buffer pH 7.41, 70 minutes
[10] = H2O2 5 μM, phosphate buffer pH 7.73, 70 minutes
[11] = H2O2 5 μM, phosphate buffer pH 8.04, 70 minutes
[12] = H2O2 5 μM, phosphate buffer pH 9.18, 70 minutes
[13] = H2O2 10 μM, phosphate buffer pH 6.87, 70 minutes
[14] = H2O2 10 μM, phosphate buffer pH 7.41, 70 minutes
[15] = H2O2 10 μM, phosphate buffer pH 7.73, 70 minutes
[16] = H2O2 10 μM, phosphate buffer pH 8.04, 70 minutes
[17] = H2O2 10 μM, phosphate buffer pH 9.18, 70 minutes
[18] = H2O2 15 μM, phosphate buffer pH 6.87, 70 minutes
[19] = H2O2 15 μM, phosphate buffer pH 7.41, 70 minutes
[20] = H2O2 15 μM, phosphate buffer pH 7.73, 70 minutes
[21] = H2O2 15 μM, phosphate buffer pH 8.04, 70 minutes
[22] = H2O2 15 μM, phosphate buffer pH 9.18, 70 minutes
[23] = pH 7.6 TRIS buffer, No H2O2, 60 minutes
[24] = pH 7.6 TRIS buffer, With H2O2 (25 μl of 40 μM added), 60 minutes
[25] = pH 8.8 TRIS buffer, No H2O2, 60 minutes
[26] = pH 8.8 TRIS buffer, With H2O2 (25 μl of 40 μM added), 60 minutes
[27] = pH 10.4 Tris buffer, No H2O2, 60 minutes
[28] = pH 10.4 Tris buffer, With H2O2 (25 μl of 40 μM added), 60 minutes

| Compound | average relative light units (bioluminescence) [1, 3] | average relative light units (bioluminescence) [1, 4] | average relative light units (bioluminescence) [1, 5] | average relative light units (bioluminescence) [1, 6] | average relative light units (bioluminescence) [1, 7] | average relative light units (bioluminescence) [1, 8] | average relative light units (bioluminescence) [1, 9] | average relative light units (bioluminescence) [1, 10] | average relative light units (bioluminescence) [1, 11] | average relative light units (bioluminescence) [1, 12] | average relative light units (bioluminescence) [1, 13] | average relative light units (bioluminescence) [1, 14] | average relative light units (bioluminescence) [1, 15] | average relative light units (bioluminescence) [1, 16] | average relative light units (bioluminescence) [1, 17] | average relative light units (bioluminescence) [1, 18] | average relative light units (bioluminescence) [1, 19] | average relative light units (bioluminescence) [1, 20] | average relative light units (bioluminescence) [1, 21] | average relative light units (bioluminescence) [1, 22] | other results |
| --- | --- | --- | --- | --- | --- | --- | --- | --- | --- | --- | --- | --- | --- | --- | --- | --- | --- | --- | --- | --- | --- |
| O=C(O)C1CSC(c2nc3ccc(OCc4c(B(O)O)ccc5ccccc45)cc3s2)=N1 (stereo not drawn) [PBI 4424] | 17,522 RLU | 16,181 RLU | 17,087 RLU | 18,602 RLU | 17,794 RLU | 18,952 RLU | 17,583 RLU | 18,681 RLU | 20,935 RLU | 22,309 RLU | 19,891 RLU | 17,508 RLU | 19,298 RLU | 20,554 RLU | 20,333 RLU | 20,263 RLU | 19,332 RLU | 25,729 RLU | 21,486 RLU | 20,453 RLU | light signal increase upon addition of hydrogen peroxide (in words) [1]: much smaller |
| N#Cc1nc2ccc(OCc3ccc(B(O)O)cc3)cc2s1 [PBI 4452, (4-(((2-cyanobenzo[d]thiazol-6-yl)oxy)methyl)phenyl)boronic acid] | – | – | – | – | – | – | – | – | – | – | – | – | – | – | – | – | – | – | – | – | Signal to Background Ratios ([2]; pH 7.6): 1.9; averaged RLUs (bioluminescence) [2, 23]: 607,036 RLU; averaged RLUs (bioluminescence) [2, 24]: 1,182,338 RLU; Signal to Background Ratios ([2]; pH 8.8): 4.4; averaged RLUs (bioluminescence) [2, 25]: 632,327 RLU; averaged RLUs (bioluminescence) [2, 26]: 2,790,924 RLU; Signal to Background Ratios ([2]; pH 10.4): 15.8; averaged RLUs (bioluminescence) [2, 27]: 921,935 RLU; averaged RLUs (bioluminescence) [2, 28]: 14,577,312 RLU |
| CC(Oc1ccc2nc(C3=NC(C(=O)O)CS3)sc2c1)c1ccc(B(O)O)cc1 (stereo not drawn) [PBI 4425] | 10,464 RLU | 10,266 RLU | 9,302 RLU | 10,312 RLU | 9,428 RLU | 13,296 RLU | 14,549 RLU | 13,739 RLU | 15,130 RLU | 19,728 RLU | 14,491 RLU | 14,768 RLU | 17,086 RLU | 19,258 RLU | 26,859 RLU | 14,105 RLU | 14,725 RLU | 15,789 RLU | 18,905 RLU | 24,236 RLU | light signal increase upon addition of hydrogen peroxide (in words) [1]: much smaller |
| N#Cc1nc2ccc(OCc3ccc(B(O)O)c(Cl)c3)cc2s1 [PBI 4470, (2-chloro-4-(((2-cyanobenzo[d]thiazol-6-yl)oxy)methyl)phenyl)boronic acid] | – | – | – | – | – | – | – | – | – | – | – | – | – | – | – | – | – | – | – | – | Signal to Background Ratios ([2]; pH 7.6): 1.4; averaged RLUs (bioluminescence) [2, 23]: 492,941 RLU; averaged RLUs (bioluminescence) [2, 24]: 701,300 RLU; Signal to Background Ratios ([2]; pH 8.8): 3.3; averaged RLUs (bioluminescence) [2, 25]: 468,729 RLU; averaged RLUs (bioluminescence) [2, 26]: 1,525,058 RLU; Signal to Background Ratios ([2]; pH 10.4): 16.3; averaged RLUs (bioluminescence) [2, 27]: 819,416 RLU; averaged RLUs (bioluminescence) [2, 28]: 13,391,102 RLU |
| O=C(O)C1CSC(c2nc3ccc(OCc4ccc(B(O)O)c5ccccc45)cc3s2)=N1 (stereo not drawn) [PBI 4013] | 421,702 RLU | 469,602 RLU | 573,023 RLU | 585,008 RLU | 700,831 RLU | 580,978 RLU | 760,900 RLU | 1,089,717 RLU | 1,534,619 RLU | 3,678,815 RLU | 680,475 RLU | 1,020,315 RLU | 1,634,356 RLU | 2,485,677 RLU | 5,433,577 RLU | 793,789 RLU | 1,282,281 RLU | 2,209,227 RLU | 3,373,538 RLU | 7,062,631 RLU | light signal increase upon addition of hydrogen peroxide (in words) [1]: increased strongly |
